Data published in PubChem BioAssay AID1549 (Sanford-Burnham Center for Chemical Genomics, 2009).
Activity calls are given as the source filed them. No rule for the calls is given here.

Biological target: Influenza A virus M2 proton channel (A/TW/4845/1999 H1N1)
Experiment: M2 proton channel binding, NMR based, influenza A virus H1N1 strain (AID 1549)
Details: NMR binding screen, M2 protein

Row | Compound | Kd
1 | O=C(Nn1c(=S)[nH]c2ccccc2c1=O)c1ccncc1 | > 4 mM (inactive)
2 | CC(=O)Oc1ccc(-c2nc(-c3cccnc3)no2)cc1 | > 4 mM (inactive)
3 | C=CCCCCCCCCCCCC(O)CC(O)CO (configuration not stated) (tested in a mixture with another compound) | > 4 mM (inactive)
4 | CN(C)S(=O)(=O)c1cccc(N)c1 | > 4 mM (inactive)
5 | CC(=O)NC(O)C(=O)c1cccs1 (configuration not stated) | > 4 mM (inactive)
6 | CC(=O)O[C@@H]1CC2C(C)(C)[C@H](O)C=C[C@]2(C)C2CC[C@@]3(C)[C@H](c4ccoc4)OC(=O)C4OC43[C@@]21C (some centres not stated) | > 4 mM (inactive)
7 | CSc1cccc(NC(=O)c2c(Cl)cnn2C)c1 | > 4 mM (inactive)
8 | Cc1ccc(C(=O)Nn2cnnc2)s1 | > 4 mM (inactive)
9 | Cc1ccccc1CSc1nncn1N | > 4 mM (inactive)
10 | c1ccc2[nH]c(CCn3cncn3)nc2c1 | > 4 mM (inactive)
11 | Nc1nc(-c2cccnc2)nn1C(=O)Cc1ccccc1 | > 4 mM (inactive)
12 | Cc1cc(C(=O)NC(C)c2ccncc2)cs1 (configuration not stated) | > 4 mM (inactive)
13 | CN(C(=O)NC1CCS(=O)(=O)C1)C1CCCCC1 (configuration not stated) | > 4 mM (inactive)
14 | COc1cc(OC)c2c(=O)c(O)c(-c3ccc(OC)c(OC)c3)oc2c1 | > 4 mM (inactive)
15 | COc1cc(C(=O)NCC2CCCO2)cc(OC)c1OC (configuration not stated) | > 4 mM (inactive)
16 | O=C(O)c1ccc(-n2ccnc2)cc1 | > 4 mM (inactive)
17 | CN1CCC(=NNC(=O)c2ccco2)CC1 | > 4 mM (inactive)
18 | O=c1[nH]c2ccccc2c(=O)n1CCCO | > 4 mM (inactive)
19 | NC(=O)Cc1nc(-c2ccc(F)cc2)cs1 | > 4 mM (inactive)
20 | Cn1c(=O)c2[nH]c(Nc3ccccc3)nc2n(C)c1=O | > 4 mM (inactive)
21 | CCOC(=O)c1c(C)nc2sccn12 | > 4 mM (inactive)
22 | COc1ccc(-c2c(OC)c3c(OC)c4c(cc3oc2=O)OC(C)(C)C=C4)cc1 | > 4 mM (inactive)
23 | O=C(COc1ccccc1)N1CCc2ccccc2C1 | > 4 mM (inactive)
24 | O=C1C2CCCCC2C(=O)N1c1nccs1 (configuration not stated) | > 4 mM (inactive)

Row | Compound | Kd
25 | CC(=O)Nc1ccc(S(=O)(=O)NC(N)=O)cc1 | > 4 mM (inactive)
26 | Cc1csc(SCC(=O)N2CCCC2)n1 | > 4 mM (inactive)
27 | CN1C(=O)C2C=CC1C1C(=O)N(c3ccccc3)C(=O)C21 (configuration not stated) | > 4 mM (inactive)
28 | Cc1cc(C(=O)NCc2cccs2)c(C)o1 | > 4 mM (inactive)
29 | Cc1nnsc1C(=O)N(C)c1ccccc1 | > 4 mM (inactive)
30 | O=C1C2C3C=CC(O3)C2C(=O)N1c1ccccc1 (configuration not stated) | > 4 mM (inactive)
31 | CC(=O)Nc1cc(C(F)(F)F)ccc1N1CCOCC1 | > 4 mM (inactive)
32 | O=C1CSC(=Nc2cccc(C(F)(F)F)c2)N1 | > 4 mM (inactive)
33 | O=c1c(O)c(-c2ccccc2)oc2ccccc12 | > 4 mM (inactive)
34 | Cc1cc(C(=O)NCc2cccnc2)no1 | > 4 mM (inactive)
35 | O=C1Cn2c(nc3ccccc32)N1c1ccccc1F | > 4 mM (inactive)
36 | c1csc(-c2nn[nH]n2)c1 | > 4 mM (inactive)
37 | S=C(c1ccc(N2CCOCC2)cc1)N1CCOCC1 | > 4 mM (inactive)
38 | COc1cc(N)ncn1 | > 4 mM (inactive)
39 | CC(C)c1ccc(NC(=O)C(N)=O)cc1 | > 4 mM (inactive)
40 | CC(C)(C)Cc1nc(-c2ccccn2)no1 | > 4 mM (inactive)
41 | Nc1cccnc1Oc1ccc(F)cc1F | > 4 mM (inactive)
42 | O=[N+]([O-])c1cccc2c1nnn2C(CO)OCCO (configuration not stated) | > 4 mM (inactive)
43 | O=C1c2ccc(F)cc2C(=O)N1CO | > 4 mM (inactive)
44 | CC1=C/C(=C\c2c(O)[nH]c(=O)[nH]c2=O)C(C)=N1 | > 4 mM (inactive)
45 | CCN1CCC(NC2CCC(O)CC2)CC1 (configuration not stated) | > 4 mM (inactive)
46 | CC(C)=CCCC1(C)C=Cc2c(O)c3c(c(CC=C(C)C)c2O1)OC12C(=CCCC1C(C)(C)O[C@@]2(C/C=C(\C)C(=O)O)C(=O)O)C3=O (some centres not stated) | > 4 mM (inactive)
47 | CC(=O)NC(=S)Nc1nc2ccccc2n1C(C)=O | > 4 mM (inactive)
48 | C=CCN1CC[C@]23c4c5ccc(O)c4OC2C(=O)CC[C@@]3(O)[C@H]1C5 (some centres not stated) | > 4 mM (inactive)

Row | Compound | Kd
49 | CC(=O)OC1CCC2(O)CC1(C)CCC1C2CC1(C)C (configuration not stated) | > 4 mM (inactive)
50 | COC1C(O)C(O[C@H]2CC[C@]3(C=O)C4C(CC[C@]3(O)C2)[C@@]2(O)CC[C@H](C3=CC(=O)OC3)[C@@]2(C)C[C@H]4OC(C)=O)OC(C)C1OC(C)=O (some centres not stated) | > 4 mM (inactive)
51 | O=C(c1cc(-c2ccccc2)on1)N1CCCC1 | > 4 mM (inactive)
52 | CNC(=O)C1CC(=O)N(c2ccc(O)cc2)C1 (configuration not stated) | > 4 mM (inactive)
53 | Cc1n[nH]c(=S)[nH]c1=O | > 4 mM (inactive)
54 | CSc1nc(=O)[nH]c2c1CCC2 | > 4 mM (inactive)
55 | O=c1c(-c2ccco2)[n+]([O-])c2ccccc2n1O | > 4 mM (inactive)
56 | CCN1CCC2(CC1)CC1CC3C=CC1(CN2C(C)=O)O3 (configuration not stated) | > 4 mM (inactive)
57 | CC(=O)Nc1ccc(N(C)C(C)=O)cc1 | > 4 mM (inactive)
58 | CN(C)c1ccc(/C=C2/NC(=S)NC2=O)cc1 | > 4 mM (inactive)
59 | CC(=O)c1cccc(NS(=O)(=O)N(C)C)c1 | > 4 mM (inactive)
60 | OCc1cccs1 | > 4 mM (inactive)
61 | C/C=C/c1ccc2c(c1)OCO2 | > 4 mM (inactive)
62 | CN1C2CC[C@@H]1CC(OC(=O)[C@H](CO)c1ccccc1)C2 (some centres not stated) | > 4 mM (inactive)
63 | COc1ccc(-c2cc(=O)c3ccccc3o2)cc1 | > 4 mM (inactive)
64 | NC(=O)c1ccccc1NC(=O)c1cccnc1 | > 4 mM (inactive)
65 | O=P(c1ccccc1)(c1ccccc1)C1CCOCC1 | > 4 mM (inactive)
66 | O=C(NC1=NCCS1)c1csc2ccccc12 | > 4 mM (inactive)
67 | O=c1c(O)c(-c2ccccc2)oc2cc(O)ccc12 | > 4 mM (inactive)
68 | O=C(c1cnsn1)N1CCN(c2ccccn2)CC1 | > 4 mM (inactive)
69 | O=CN1CCN(C(=O)c2ccc(F)cc2)CC1 | > 4 mM (inactive)
70 | OC1CCC(C(F)(F)F)CC1 (configuration not stated) | > 4 mM (inactive)
71 | Nc1ncnc(NCCOCCO)c1[N+](=O)[O-] | > 4 mM (inactive)
72 | CCOC(=O)c1[nH]c(C)cc1C | > 4 mM (inactive)

Row | Compound | Kd
73 | Cc1cc(C)n2c(SCc3c(C)noc3C)nnc2n1 | > 4 mM (inactive)
74 | Cn1ccnc1C(O)c1ccccc1 (configuration not stated) | > 4 mM (inactive)
75 | NC(=O)Cn1cnc2c(cnn2-c2ccccc2)c1=O | > 4 mM (inactive)
76 | O=C1c2cccnc2C(=O)N1Cc1ccc2c(c1)OCO2 | > 4 mM (inactive)
77 | Cc1n[nH]c(=S)n1-c1ccc(C(=O)O)cc1 | > 4 mM (inactive)
78 | COC(=O)C1CCc2ccccc2N1 (configuration not stated) | > 4 mM (inactive)
79 | Cc1ccc(S(C)(=O)=O)s1 | > 4 mM (inactive)
80 | O=c1c2ccccc2nc2n1CCCCN2 | > 4 mM (inactive)
81 | Cn1nnc2cc(CN)ccc21 | > 4 mM (inactive)
82 | c1ccc(-c2n[nH]c(-c3ccccn3)n2)nc1 | > 4 mM (inactive)
83 | NC1=NN(c2ccccc2)C(=O)C1 | > 4 mM (inactive)
84 | COc1ccc(-c2cn[nH]c2N)c(OC)c1 | > 4 mM (inactive)
85 | Cc1cc(C(=O)Nc2ccccn2)no1 | > 4 mM (inactive)
86 | Cc1cc(C(=O)O)n[nH]1 | > 4 mM (inactive)
87 | Cc1cc(C)n2nc(C(=O)NCc3ccco3)nc2n1 | > 4 mM (inactive)
88 | CC1(C)C2CC(=O)[C@]3(C)C(CC[C@@]4(C)[C@H](c5ccoc5)OC(=O)[C@H]5O[C@]543)[C@@]2(C)C(=O)C[C@H]1O (some centres not stated) | > 4 mM (inactive)
89 | O=C1NC(=O)C2C3C=CC(O3)C12 (configuration not stated) | > 4 mM (inactive)
90 | Cc1nc(SCC#N)c2c(C)c(C)sc2n1 | > 4 mM (inactive)
91 | Nc1cccc(NC(=O)c2ccco2)c1 | > 4 mM (inactive)
92 | COc1ccccc1NS(=O)(=O)c1c[nH]c(=O)[nH]c1=O | > 4 mM (inactive)
93 | Clc1ncnc2[nH]ncc12 | > 4 mM (inactive)
94 | O=C(CSc1ncn[nH]1)c1ccc2c(c1)OCO2 | > 4 mM (inactive)
95 | Nc1ccc(S(=O)(=O)N2CCCCC2)cc1 | > 4 mM (inactive)
96 | O=C(Cc1cccs1)Nc1nncs1 | > 4 mM (inactive)

Row | Compound | Kd
97 | O=C(O)CCC(=O)c1cccc2ccccc12 | > 4 mM (inactive)
98 | N#CCSc1nc2ccccc2c(=O)n1-c1ccccc1 | > 4 mM (inactive)
99 | CC(=O)N1CCN(c2ccc(O)cc2)CC1 | > 4 mM (inactive)
100 | CC(=O)Nc1nnc(-c2ccco2)o1 | > 4 mM (inactive)
101 | COc1ccc(-c2oc3c(CC=C(C)C)c(O[C@@H]4O[C@H](CO)[C@@H](O)[C@H](O)[C@H]4O)cc(O)c3c(=O)c2O[C@@H]2O[C@@H](C)[C@H](O)[C@@H](O)[C@H]2O)cc1 | > 4 mM (inactive)
102 | O=C(NC1=NCCS1)c1ccc2snnc2c1 | > 4 mM (inactive)
103 | CNC(=O)C(=O)Nc1ccc(C)c(C)c1 | > 4 mM (inactive)
104 | NC(=O)c1ccsc1NC(=O)C1=COCCO1 | > 4 mM (inactive)
105 | COc1cc2[nH]c(=S)n(C)c(=O)c2cc1OC | > 4 mM (inactive)
106 | NC(=O)CSc1nnnn1-c1ccccc1 | > 4 mM (inactive)
107 | c1ccc(-n2cnnc2)nc1 | > 4 mM (inactive)
108 | CC(=O)OC[C@@]1(O)C[C@@]23CCC4c5ccoc5CC[C@]4(C)C2CC[C@@H]1C3 (some centres not stated) | > 4 mM (inactive)
109 | O=c1cnnc(Nc2ccc(O)cc2)[nH]1 | > 4 mM (inactive)
110 | N#CC(O[C@@H]1O[C@H](CO[C@@H]2O[C@H](CO)[C@@H](O)[C@H](O)[C@H]2O)[C@@H](O)[C@H](O)[C@H]1O)c1ccccc1 (some centres not stated) | > 4 mM (inactive)
111 | NC(CCC(=O)Nc1ccc([N+](=O)[O-])cc1)C(=O)O (configuration not stated) | > 4 mM (inactive)
112 | Cc1onc(-c2c(F)cccc2Cl)c1C(N)=O | > 4 mM (inactive)
113 | O=C(Cc1c(F)cccc1Cl)Nc1cccnc1 | > 4 mM (inactive)
114 | CN(C)C(=O)Nc1ccc(F)cc1F | > 4 mM (inactive)
115 | CC(=O)N1C(=S)NC(=O)/C1=C\c1cccnc1 | > 4 mM (inactive)
116 | O=C(NN=C1CCCC1)c1ccncc1 | > 4 mM (inactive)
117 | C=C1C(N)CC2CC1C2(C)C (configuration not stated) | > 4 mM (inactive)
